Data on 1 compound can be found in patent US8653057B1, “Prophylactic perioperative testosterone supplementation for protection of and recovery of function” (The Regents of the University of California, priority 2010, dated 2014).

Data set [1] in a line: testosterone supplementation of low-testosterone patients around radical prostatectomy (anecdotal results). Type of data set: in vivo, men. From the text: Therefore men with either low or low normal testosterone levels can be treated with testosterone (or other androgens such as synthetic steroids structurally related to testosterone) to prevent, mitigate or treat erectile dysfunction associated with RARP/RP. A large number of testosterone replacement drugs such as Androgel can easily be given to appropriate patients prior to or even following surgery. The amount of testosterone administered is sufficient to raise the free testosterone level into the high free testosterone range as defined above (generally greater than about 9 ng/dl). Where other androgens are used, the equivalent effectiveness of each different molecule in terms of testosterone is generally known. Sufficient androgen is given so that the effectiveness of the circulating level of androgen plus testosterone falls within the high free testosterone range. As will be clear to those of ordinary skill in the art, the testosterone or other androgen is administered at the usual amount and frequency. Circulating testosterone levels are measured at appropriate intervals (i.e., weekly or monthly) and the dosage adjusted if necessary.
We believe that preoperative supplementation will produce even more dramatic improvements. […]

The conditions of data set [2]: cited from earlier work.

As for `C[C@]12CC[C@H]3[C@@H](CCC4=CC(=O)CC[C@@]43C)[C@@H]1CC[C@@H]2O` [testosterone], in data set [1] (supplementing low testosterone levels, anecdotal results), the “recovery (of potency/sexual function) after prostate surgery” value is “more rapid and more complete recovery”. Also, the “recurrence of the cancer” value in data set [1] (testosterone supplementation, limited data) is “does not lead to recurrence of the cancer”. In data set [2], the “PSA values after testosterone replacement therapy” value is recorded as “have not been shown to increase significantly”. In addition, in data set [2] (testosterone replacement after radical prostatectomy, small studies (7, 10 and 57 men), 13 and 19 months), the “prostate specific antigen (PSA)” value was “without increasing prostate specific antigen (PSA)”.
